ChEMBL document CHEMBL5223145, “A small molecule binding to TGGAA pentanucleotide repeats that cause spinocerebellar ataxia type 31” (Bioorg Med Chem Lett, 2023)
Activity calls are given as the source filed them. The calls are words filed in the database; no cut-off is given here.

Legend:
[1] = Stabilization of GGC/GGC -motif DNA (unknown origin) assessed as increase in melting temperature
[2] = Stabilization of GGA/GGA-motif DNA (unknown origin) assessed as increase in melting temperature
[3] = Stabilization of AGG/AGG-motif DNA (unknown origin) assessed as increase in melting temperature
[4] = Stabilization of AGA/AGA-motif DNA (unknown origin) assessed as increase in melting temperature at 5 to 10 uM; details: dose 5-10 µM
[5] = Stabilization of TGGAA DNA (unknown origin) assessed as increase in melting temperature at 2 to 20 uM; details: dose 2-20 µM
[6] = Stabilization of AGA/AAA-motif DNA (unknown origin) assessed as increase in melting temperature at 5 to 10 uM; details: dose 5-10 µM
[7] = Stabilization of GGA/AGG-motif DNA (unknown origin) assessed as increase in melting temperature at 5 to 10 uM; details: dose 5-10 µM
[8] = Binding affinity to GGA/GGA-motif hairpin DNA (unknown origin) assessed as association constant by isothermal titration calorimetry
[9] = Stabilization of GGA/AAA-motif DNA (unknown origin) assessed as increase in melting temperature at 5 to 10 uM; details: dose 5-10 µM
[10] = Stabilization of GGA/AGA-motif DNA (unknown origin) assessed as increase in melting temperature at 5 to 10 uM; details: dose 5-10 µM
[11] = Stabilization of AAA/AAA-motif DNA (unknown origin) assessed as increase in melting temperature at 5 to 10 uM; details: dose 5-10 µM

| Activity [1] | Tm [2] | Activity [3] | Tm [4] | Tm [5] | Tm [1] | Tm [6] | Tm [7] | Ka [8] | Tm [9] | Tm [10] | Tm [11] | Structure (SMILES) |
| --- | --- | --- | --- | --- | --- | --- | --- | --- | --- | --- | --- | --- |
| inactive | 6 °C | Active | – | – | – | – | – | – | – | – | – | Cc1ccc2ccc(NC(=O)OCCCNCCCOC(=O)Nc3ccc4ccc(C)nc4n3)nc2n1 |
| – | 13.8 °C | inactive | 11.6 °C | 68.5 °C | 4.6 °C | 0.3 °C | 13.8 °C | 2.5 10^7/M | -1.2 °C | 9.8 °C | -1.2 °C | Cc1ccc2ccc(NC(=O)CCN(CCC(=O)Nc3ccc4ccc(C)nc4n3)C(=O)CCCN)nc2n1 |
| – | 7.5 °C | Active | – | – | 1.8 °C | – | – | – | – | – | – | Cc1ccc2ccc(NC(=O)CCNCCC(=O)Nc3ccc4ccc(C)nc4n3)nc2n1 |
| inactive | 6 °C | Active | – | – | – | – | – | – | – | – | – | Cc1ccc2ccc(NC(=O)CCN(CCCCN)CCC(=O)Nc3ccc4ccc(C)nc4n3)nc2n1 |
